1 molecule from paper PMC7180728, “Novel Anthraquinone Compounds Inhibit Colon Cancer Cell Proliferation via the Reactive Oxygen Species/JNK Pathway” (Molecules, 2020) can be followed below.

Data set [1] concerns HCT116 cells. The experiment in a line: MTT cell viability with or without SP600125. The format is cell-based, human. As to conditions: 8a alone, 24 h, compared with the control. The method, then: Furthermore, to further investigate whether activation of phosphorylated JNK affects cell viability, HCT116 was co-treated with 8a and SP600125 (JNK inhibitor), and the effect of phosphorylated JNK inactivation on HCT116 cell activity was examined by MTT. […] Following co-treatment with 8a and SP600126, the rate cell viability was 55%. The inhibitory proliferation activty of 8a were partially weakened by the usage of 5 μM Sp600125.
Figure 9 The effect of 8a treatment on phosphorylated JNK and JNK expression levels. (A) Western blot analysis of phosphorylated JNK and JNK expression levels of in HCT116 cells treated with 20 μg/mL 8a for time-periods; (B) The expression levels of the phospho-JNK proteins were determined after treatment of HCT116 cells with 20 μg/mL 8a with or without NAC. Data represent the mean ± standard deviation of three independent experiments; (C) Grayscale analysis of the relative protein level of phosphorylated JNK. Data represent the mean ± standard deviation of three independent experiments. * p < 0.05; (D) MTT assay of HCT116 cells viability following treatment with 8a and SP600125 for 24 h.

Data set [2] concerns HeLa. Nature of the data set: MTT cell proliferation assay, HeLa. It counts as cell-based. The note with it: Homo sapiens, HeLa cervical cancer, 48 h. The method, then:
(§1) The effects of the synthesized amide anthraquinone derivatives on the proliferative activity of eight human cancerous cell lines (EC9706, MCF-7, SGC-7901, HepG2, QBC939, HeLa, HCT116 and SW480) in addition to two normal human cell lines (colorectal FHC and liver HL7702) were evaluated using the standard MTT assay.
(§2) The human esophageal cancer cell line EC9706 was obtained from Cancer Hospital and Institute by Prof. Ming Rong Wang, Chinese Academy Medical of Sciences. The human colorectal carcinoma cell lines HCT116 and SW480, hepatoma cell line HepG2, cervical carcinoma cell line HeLa, breast cancer cell line MCF-7, gastric cancer cell line SGC-7901, cholangiocarcinoma cell line QBC939, normal fetal colon cell line FHC and liver cell line HL-7702 were obtained from the Cell Bank of the Shanghai Chinese Academy of Sciences. All cells were cultured in RPMI 1640 medium containing 100 U/mL penicillin and streptomycin and 10% fetal bovine serum and maintained at 37°C under a 5% CO2 atmosphere.
(§3) We analyzed the inhibitory effects of eight anthraquinone-amino acid derivatives on the proliferation of eight tumor cell lines and two normal cell lines in vitro using MTT assays. Cells were added to a 96-well plate with (5,000 cells per well in 100 µL RPMI-1640 medium). Cells were treated with different concentrations (10–100 μg/mL) of 8a–8h for 48 h and then incubated with 20 μL MTT (5 mg/mL) for another 4 h at 37°C. DMSO (150 μL) was then added to each well to dissolve the formazan crystals. The absorbance of each well was read at 490 nm on a microtiter plate ELISA reader. The mean values were obtained from a minimum of three parallel experiments. IC50 values were calculated.
For orientation: Tetrazolium assays rely on reduction of a dye to a coloured formazan, in cell work by metabolically active cells.

The test system of data set [3] is HepG2. Nature of the data set: MTT cell proliferation assay, HepG2. As to conditions: Homo sapiens, HepG2 liver cancer, 48 h. It counts as cell-based. The method, then:
as §1, §2, §3

Data set [4] concerns MCF-7. Nature of the data set: MTT cell proliferation assay, MCF-7. As to conditions: Homo sapiens, MCF7, MCF-7 breast cancer, 48 h. It counts as cell-based. The method, then: as §1, §2, §3
For data set [5], the system named is HCT116 cells. The experiment in a line: Annexin V/PI apoptosis assay by flow cytometry. It counts as cell-based, human. The note with it: 24 h, control 0.06%. The method, then: Natural anthraquinones, such as rubiadin, physcion, emodin and soranjidiol, have been reported to induce apoptosis in tumor cells. Therefore, after detecting the effect of 8a on tumor cell proliferation, we investigated correlation between the anticancer activity of compound 8a and apoptosis. The effects of compound 8a treatment on HCT116 cell apoptosis were detected by flow cytometry following Annexin V/PI staining.
HCT116 cells were added to a 6-well plate (5 × 10^6/well). After attachment, the cells were treated with 8a for 24 h. Then, the cells were collected and centrifuged (10,000 g × 5 min). Cells were washed once with 1 mL of PBS. Cells were suspended in 500 μL binding buffer (containing 5 μL Annexin V-FITC and 1 μL propidium iodide [PI]) and incubated for 30 min in the dark. Apoptosis cells were detected by flow cytometry (FACSCalibur, BD, The United States).

Data set [6] has as its system HL-7702. The experiment in a line: MTT cell proliferation assay, normal liver cells HL-7702. It counts as cell-based. The note with it: L02, HL-7702 normal human hepatocyte, 48 h. Here is the method:
as §1, §2, §3

The test system of data set [7] is EC9708. The experiment in a line: MTT cell proliferation assay, EC9706 (Table 1: EC9708). The format is cell-based. The note with it: Homo sapiens, EC9708 esophageal cancer, 48 h. The method, then:
as §1, §2, §3

The subject of data set [8] is intracellular ROS in HCT116 cells. Nature of the data set: Detection of ROS by DCFH-DA, flow cytometry. It counts as cell-based, human. As to conditions: compared to DMSO-treated control. Here is the method:
Intracellular ROS are key factors in the activation of many signaling pathways, involved in a variety of biological functions including apoptosis and necrosis. High levels of ROS are capable of inducing tumor cell apoptosis. We evaluated the ability of the compounds to induce ROS by flow cytometric analysis of the fluorescent probe DCFH-DA. […] Next, we investigated ROS production before and after induction with 8a and NAC (N-acetyl-L-cysteine).
Cells were added to a 6-well plate (1 × 10^4/well) and incubated for 24 h to allow adherence. Set 0.1% DMSO as the control group, 8a as the treatment group, NAC as the treatment group, 8a + NAC as the treatment group. Among them, in the 8a + NAC treatment group, 8a was added after 5 mM NAC treatment for 1 h. Cells that had been treated for 24 h were collected. The cells were then washed three times with PBS and incubated with 10 μM DCFH-DA for 30 min in the dark. ROS levels were analyzed by flow cytometry.
A general note: A flow cytometer gives signals particle by particle.

Data set [9] has as its system SGC-7901. The experiment in a line: MTT cell proliferation assay, SGC-7901. The format is cell-based, human. The note with it: Homo sapiens, SGC-7901, 48 h, SGC-7901 gastric cancer, read-out: IC50. The method, then:
as §1, §2, §3

Data set [10] has as its system HCT116. The experiment in a line: MTT cell proliferation assay, HCT116. It counts as cell-based, human. The note with it: Homo sapiens, HCT-116, HCT116 colon cancer, 48 h. Here is the method: as §1, §2, §3

≈ marks a conversion by molar mass, not a printed value.

Broadly, the cell viability is a per cent measure of how many cells are alive, often set against a control. A low value points to more harm to the cells. For orientation: IC50 means the concentration needed to halve the response being measured.

With `CC(C)CC(NC(=O)c1ccc2c(c1[N+](=O)[O-])C(=O)c1ccccc1C2=O)C(=O)O` (stereo not drawn) [Compound 8a, N-[(9,10-dihydro-1-nitro-9,10-dioxo-2-anthracenyl)carbonyl-leucine]], the cell viability in [1] is 39%. Moreover, the half-maximal inhibitory concentration (IC50) in data set [2] is 29.75 ± 0.15 µg/mL (≈ 72.5 µM); in data set [3] it was 44.65 ± 0.03 µg/mL (≈ 109 µM); in data set [4], 33.34 ± 0.28 µg/mL (≈ 81.2 µM); in data set [6] it was > 1000 µg/mL; in [7], 44 ± 0.61 µg/mL (≈ 107 µM); in [9], 55.82 ± 0.16 µg/mL (≈ 136 µM). In data set [10], this molecule had an IC50 of 17.8 ± 0.03 µg/mL (≈ 43.4 µM). For the same molecule, the rate of apoptosis in data set [5] (10 μg/mL) amounted to 11.24%; in [5] (20 μg/mL) it was 18.97%; in [5] (40 μg/mL), 26.94%. For the same molecule, the “ROS levels (in words)” value in data set [8] is listed as “increase ROS levels in a dose-dependent manner”.
